From patent US9963726B2, “Fiber-containing carbohydrate composition” (Tate & Lyle Ingredients Americas LLC, priority 2006, dated 2018)
Marks after values point to notes of the source that are not given here.

Test system: healthy human subjects
Assay: Blood glucose response in healthy human subjects
Type: in vivo
Details: 10 healthy human subjects
Procedure: Samples containing 25 g (dsb) of the syrup were prepared as follows. 2.838 kg of filtered water was added to a jug containing a pre-weighed quantity of RCS. The lid was placed on the jug, and it was then mixed thoroughly by shaking and swirling until all syrup was dissolved. 12 oz. (350 g) of this solution contained 25 g of the test carbohydrate on a dry solids basis.
The control solution was prepared by mixing 25 g anhydrous glucose with 300 mL of water.
The samples were administered to 10 healthy human subjects. The characteristics of the subjects were: 5 male, 5 female; age, 35±10 y; body mass index, 24.0±3.8 kg/m^2. Each subject undertook nine tests on separate days which included the six test foods and on three occasions the standard glucose drink containing 25 g of available carbohydrate. Blood glucose was measured fasting and at 15, 30, 45, 60, 90 and 120 minutes after eating. Incremental areas under the blood glucose response curves (iAUC) were calculated. Each subject's iAUC after consumption of each test food was expressed as a percentage of the mean iAUC of the three glucose controls taken by the same subject. The incremental areas under the curve and relative glycemic response (RGR) of the products were: […]

OC[C@H]1OC(O)[C@H](O)[C@@H](O)[C@@H]1O (some centres unmarked) [Glucose, anhydrous glucose]
iAUC (incremental area under the blood glucose response curve) (25 g (dsb), blood glucose fasting to 120 minutes): 124.4 ± 13.5^a | RGR (relative glycemic response) (iAUC as percentage of mean iAUC of the three glucose controls of the same subject): 100^a
